Laboratory results as given in patent US9603364B2 (Dow AgroSciences LLC, priority 2013, dated 2017).

Legend:
Assay in all cases: General post-emergent herbicidal activity, foliar application
Assay type in all cases: in vivo
[1] = test system: Euphorbia heterophylla L. (poinsettia, wild); settings: for GR80 Value EPHHL: calculated by probit analysis, dose for 80% visual injury, may be extrapolated
Description: (§1) A weighed amount, determined by the highest rate to be tested, of each test compound was placed in a 25 mL glass vial and was dissolved in 4 mL of a 97:3 v/v (volume/volume) mixture of acetone and dimethyl sulfoxide to obtain concentrated stock solutions which will be referred to as General Purpose Solvent. […] The concentrated stock solutions obtained were diluted with 20 mL of an aqueous mixture containing water, General Purpose Solvent, isopropyl alcohol, Atplus 411F crop oil concentrate, and Triton X-155 surfactant in a 46:42:12:1.0:0.02 v/v ratio to obtain spray solutions containing the highest application rates. Additional application rates were obtained by serial dilution of 12 mL of the high rate solution into a solution containing 2 mL of 97:3 v/v (volume/volume) mixture of acetone and dimethyl sulfoxide and 10 mL of an aqueous mixture containing water, General Purpose Solvent, isopropyl alcohol, Atplus 411F crop oil concentrate, and Triton X-155 surfactant in a 46:42:12:1.0:0.02 v/v ratio to obtain 1/2×, 1/4×, 1/8× and 1/16× rates of the high rate. […] Control plants were sprayed in the same manner with the solvent blank.
(§2) The treated plants and control plants were placed in a greenhouse as described above and watered by sub-irrigation to prevent wash-off of the test compounds. After 14 days, the condition of the test plants as compared with that of the untreated plants was determined visually and scored on a scale of 0 to 100 percent where 0 corresponds to no injury and 100 corresponds to complete kill.
(§3) By applying the well-accepted probit analysis as described by J. Berkson in […], 48, 565 (1953) and by D. Finney in “Probit Analysis” Cambridge University Press (1952), the dose response data gathered as expressed above can be used to calculate GR20, GR50 and GR80 values, which are defined as growth reduction factors that correspond to the effective dose of herbicide required to kill or control 20 percent, 50 percent or 80 percent, respectively, of a target plant. Data not expressed in Table A may have been used to calculate some of the GR80 values in Table B. In some cases, the GR80 values may be extrapolations calculated based on the slope of the dose response curve for individual compounds listed in Table B.

[2] = test system: Echinochloa crus-galli (L.) Beauv. (barnyardgrass); settings: for GR80 Value ECHCG: calculated by probit analysis, dose for 80% visual injury, may be extrapolated
Description: as §1, §2, §3

[3] = test system: Viola tricolor L. (pansy); settings: for GR80 Value VIOTR: calculated by probit analysis, dose for 80% visual injury, may be extrapolated
Description: as §1, §2, §3

[4] = test system: Helianthus annuus L. (sunflower, common); settings: for GR80 Value HELAN: calculated by probit analysis, dose for 80% visual injury, may be extrapolated
Description: as §1, §2, §3

[5] = test system: Chenopodium album L. (lambsquarters, common); settings: for GR80 Value CHEAL: calculated by probit analysis, dose for 80% visual injury, may be extrapolated
Description: as §1, §2, §3

[6] = test system: Amaranthus retroflexus L. (pigweed, redroot); settings: for GR80 Value AMARE: calculated by probit analysis, dose for 80% visual injury, may be extrapolated
Description: as §1, §2, §3

Zea mays L. (corn) = settings: 336 h, scored after 14 days, read-out: % Visual Growth Reduction ZEAMX
Description: as §1, §2

Oryza sativa L. (rice) = settings: Oryza sativa, 336 h, scored after 14 days, read-out: % Visual Growth Reduction ORYSA
Description: as §1, §2

COC(=O)c1nc(CF)cc(N)c1Cl [Compound F26, methyl 4-amino-3-chloro-6-(fluoromethyl)picolinate]
pest or weed control at 37 g/ha ([1]; Euphorbia heterophylla, 336 h, 37 g ai/ha, foliar post-emergent, scored after 14 days, read-out: % Visual Growth Reduction EPHHL): 90%
pest or weed control at 74 g/ha ([1]; Euphorbia heterophylla, 336 h, 74 g ai/ha, foliar post-emergent, scored after 14 days, read-out: % Visual Growth Reduction EPHHL): 100%
pest or weed control at 148 g/ha ([1]; Euphorbia heterophylla, 336 h, 148 g ai/ha, foliar post-emergent, scored after 14 days, read-out: % Visual Growth Reduction EPHHL): 100%
GR80 Value EPHHL [1]: 38.8 g ai/ha
pest or weed control at 37 g/ha ([2]; Echinochloa crus-galli, 336 h, 37 g ai/ha, foliar post-emergent, scored after 14 days, read-out: % Visual Growth Reduction ECHCG): 0%
pest or weed control at 74 g/ha ([2]; Echinochloa crus-galli, 336 h, 74 g ai/ha, foliar post-emergent, scored after 14 days, read-out: % Visual Growth Reduction ECHCG): 0%
pest or weed control at 148 g/ha ([2]; Echinochloa crus-galli, 336 h, 148 g ai/ha, foliar post-emergent, scored after 14 days, read-out: % Visual Growth Reduction ECHCG): 20%
GR80 Value ECHCG [2]: >148 g ai/ha
pest or weed control at 37 g/ha ([3]; Viola tricolor, 336 h, 37 g ai/ha, foliar post-emergent, scored after 14 days, read-out: % Visual Growth Reduction VIOTR): 10%
pest or weed control at 74 g/ha ([3]; Viola tricolor, 336 h, 74 g ai/ha, foliar post-emergent, scored after 14 days, read-out: % Visual Growth Reduction VIOTR): 15%
pest or weed control at 148 g/ha ([3]; Viola tricolor, 336 h, 148 g ai/ha, foliar post-emergent, scored after 14 days, read-out: % Visual Growth Reduction VIOTR): 70%
GR80 Value VIOTR [3]: 223 g ai/ha
pest or weed control at 37 g/ha ([4]; Helianthus annuus, 336 h, 37 g ai/ha, foliar post-emergent, scored after 14 days, read-out: % Visual Growth Reduction HELAN): 70%
pest or weed control at 74 g/ha ([4]; Helianthus annuus, 336 h, 74 g ai/ha, foliar post-emergent, scored after 14 days, read-out: % Visual Growth Reduction HELAN): 90%
pest or weed control at 148 g/ha ([4]; Helianthus annuus, 336 h, 148 g ai/ha, foliar post-emergent, scored after 14 days, read-out: % Visual Growth Reduction HELAN): 90%
GR80 Value HELAN [4]: 48.3 g ai/ha
pest or weed control at 37 g/ha ([5]; Chenopodium album, 336 h, 37 g ai/ha, foliar post-emergent, scored after 14 days, read-out: % Visual Growth Reduction CHEAL): 90%
pest or weed control at 74 g/ha ([5]; Chenopodium album, 336 h, 74 g ai/ha, foliar post-emergent, scored after 14 days, read-out: % Visual Growth Reduction CHEAL): 90%
pest or weed control at 148 g/ha ([5]; Chenopodium album, 336 h, 148 g ai/ha, foliar post-emergent, scored after 14 days, read-out: % Visual Growth Reduction CHEAL): 90%
GR80 Value CHEAL [5]: 29 g ai/ha
pest or weed control at 37 g/ha ([6]; Amaranthus retroflexus, 336 h, 37 g ai/ha, foliar post-emergent, scored after 14 days, read-out: % Visual Growth Reduction AMARE): 0%
pest or weed control at 74 g/ha ([6]; Amaranthus retroflexus, 336 h, 74 g ai/ha, foliar post-emergent, scored after 14 days, read-out: % Visual Growth Reduction AMARE): 80%
pest or weed control at 148 g/ha ([6]; Amaranthus retroflexus, 336 h, 148 g ai/ha, foliar post-emergent, scored after 14 days, read-out: % Visual Growth Reduction AMARE): 90%
GR80 Value AMARE [6]: 104 g ai/ha
plant injury at 37 g/ha (Zea mays L. (corn); 37 g ai/ha): 0%
plant injury at 74 g/ha (Zea mays L. (corn); 74 g ai/ha): 0%
plant injury at 148 g/ha (Zea mays L. (corn); 148 g ai/ha): 10%
plant injury at 37 g/ha (Oryza sativa L. (rice); 37 g ai/ha): 0%
plant injury at 74 g/ha (Oryza sativa L. (rice); 74 g ai/ha): 0%
plant injury at 148 g/ha (Oryza sativa L. (rice); 148 g ai/ha): 0%

COC(=O)c1nc(C(F)CF)cc(N)c1Cl (stereo not drawn) [Compound F28, methyl 4-amino-3-chloro-6-(1,2-difluoroethyl)picolinate]
pest or weed control at 70 g/ha ([1]; Euphorbia heterophylla, 336 h, 70 g ai/ha, foliar post-emergent, scored after 14 days, read-out: % Visual Growth Reduction EPHHL): 80%
pest or weed control at 140 g/ha ([1]; Euphorbia heterophylla, 336 h, 140 g ai/ha, foliar post-emergent, scored after 14 days, read-out: % Visual Growth Reduction EPHHL): 100%
pest or weed control at 280 g/ha ([1]; Euphorbia heterophylla, 336 h, 280 g ai/ha, foliar post-emergent, scored after 14 days, read-out: % Visual Growth Reduction EPHHL): 100%
GR80 Value EPHHL [1]: 73 g ai/ha
pest or weed control at 70 g/ha ([2]; Echinochloa crus-galli, 336 h, 70 g ai/ha, foliar post-emergent, scored after 14 days, read-out: % Visual Growth Reduction ECHCG): 0%
pest or weed control at 140 g/ha ([2]; Echinochloa crus-galli, 336 h, 140 g ai/ha, foliar post-emergent, scored after 14 days, read-out: % Visual Growth Reduction ECHCG): 0%
pest or weed control at 280 g/ha ([2]; Echinochloa crus-galli, 336 h, 280 g ai/ha, foliar post-emergent, scored after 14 days, read-out: % Visual Growth Reduction ECHCG): 0%
GR80 Value ECHCG [2]: >280 g ai/ha
pest or weed control at 70 g/ha ([3]; Viola tricolor, 336 h, 70 g ai/ha, foliar post-emergent, scored after 14 days, read-out: % Visual Growth Reduction VIOTR): 15%
pest or weed control at 140 g/ha ([3]; Viola tricolor, 336 h, 140 g ai/ha, foliar post-emergent, scored after 14 days, read-out: % Visual Growth Reduction VIOTR): 75%
pest or weed control at 280 g/ha ([3]; Viola tricolor, 336 h, 280 g ai/ha, foliar post-emergent, scored after 14 days, read-out: % Visual Growth Reduction VIOTR): 90%
GR80 Value VIOTR [3]: 197 g ai/ha
pest or weed control at 70 g/ha ([4]; Helianthus annuus, 336 h, 70 g ai/ha, foliar post-emergent, scored after 14 days, read-out: % Visual Growth Reduction HELAN): 80%
pest or weed control at 140 g/ha ([4]; Helianthus annuus, 336 h, 140 g ai/ha, foliar post-emergent, scored after 14 days, read-out: % Visual Growth Reduction HELAN): 90%
pest or weed control at 280 g/ha ([4]; Helianthus annuus, 336 h, 280 g ai/ha, foliar post-emergent, scored after 14 days, read-out: % Visual Growth Reduction HELAN): 95%
GR80 Value HELAN [4]: 52.9 g ai/ha
pest or weed control at 70 g/ha ([5]; Chenopodium album, 336 h, 70 g ai/ha, foliar post-emergent, scored after 14 days, read-out: % Visual Growth Reduction CHEAL): 90%
pest or weed control at 140 g/ha ([5]; Chenopodium album, 336 h, 140 g ai/ha, foliar post-emergent, scored after 14 days, read-out: % Visual Growth Reduction CHEAL): 80%
pest or weed control at 280 g/ha ([5]; Chenopodium album, 336 h, 280 g ai/ha, foliar post-emergent, scored after 14 days, read-out: % Visual Growth Reduction CHEAL): 90%
GR80 Value CHEAL [5]: 17.5 g ai/ha
pest or weed control at 70 g/ha ([6]; Amaranthus retroflexus, 336 h, 70 g ai/ha, foliar post-emergent, scored after 14 days, read-out: % Visual Growth Reduction AMARE): 80%
pest or weed control at 140 g/ha ([6]; Amaranthus retroflexus, 336 h, 140 g ai/ha, foliar post-emergent, scored after 14 days, read-out: % Visual Growth Reduction AMARE): 100%
pest or weed control at 280 g/ha ([6]; Amaranthus retroflexus, 336 h, 280 g ai/ha, foliar post-emergent, scored after 14 days, read-out: % Visual Growth Reduction AMARE): 100%
GR80 Value AMARE [6]: 66.4 g ai/ha
plant injury at 70 g/ha (Zea mays L. (corn); 70 g ai/ha): 10%
plant injury at 140 g/ha (Zea mays L. (corn); 140 g ai/ha): 10%
plant injury at 280 g/ha (Zea mays L. (corn); 280 g ai/ha): 10%
plant injury at 70 g/ha (Oryza sativa L. (rice); 70 g ai/ha): 0%
plant injury at 140 g/ha (Oryza sativa L. (rice); 140 g ai/ha): 0%
plant injury at 280 g/ha (Oryza sativa L. (rice); 280 g ai/ha): 0%
